Tests used:
[1] = Brain drug concentration by different routes of administration; format: in vivo, C57BL/6 mice; conditions: for Brain Drug Concentration: time 0 (pre-dose); for concentration at 5 min / concentration at 15 min / concentration at 30 min / concentration at 60 min / concentration at 120 min / concentration at 240 min / concentration at 480 min: C57BL/6, mouse, brain
Protocol: The following materials and methods are provided to facilitate the practice of Example 9, in which drug concentration in certain biological samples were assessed using different routes of administration.
Parameters Used in Dosing and Drug Administration of the Compound of Example 3:
Adult C57BL/6 mice (preferred 16 weeks old).
Three mice per time point. If all three routes are conducted in same day, one group of pre-dose is efficient.
In the studies using adult C57BL/6 mice (preferably approximately 16 weeks old), dosing and drug administration parameters for the compound of Example 3 were explored. Clearly, the compound is suitable for oral administration and lasts in the plasma up to 2-3 hours.

mice = test: Irwin behavioral battery; format: in vivo, mouse; conditions: FIGS. 7A-7C
Protocol: To further characterize the pharmacological effects of these compounds, Irwin behavioral battery testing was performed.
Testing occurred towards the end of the light cycle between 8-11 a.m. (lights go off at 11:00 a.m.). The mice were acclimated to the testing room for at least 30 minutes. The Irwin test equipment (timer, viewing jar and support, open arena, grid, ruler, sound box, wood stocks, kimwipes box) was placed under a laminar flow hood. The mouse was first placed in the viewing jar for five (5) minutes and the following parameters were scored:
At the end of the 5-minute period, the viewing jar with the muose in it was transferred to the arena, where the jar was disassembled and the mouse released into the arena. The mouse was not handled by the experimenter. The following parameters were scored in the arena in the following order:
Then the mouse was picked up by its tail and kept above the arena to score the following set of parameters:
The mouse was then placed in supine restraint to score the below parameters in the following order:
The final three parameters were scored with the mouse above or in the arena: […]

male mice [2] = test: Accelerating rotarod assay; format: in vivo, mouse; conditions: 10 and 90 mg/kg, FIG. 11
Protocol: Rotarod assays were also performed using the experimental protocol and design set forth below. Individually housed male mice aged 8-12 weeks were used for this experiment. Mice were maintained on a reverse L:D/12 p.m.: 12 a.m. cycle in a barrier facility with food and water available ad libitum. Testing occurred towards the end of the light cycle between 6-12 a.m. Mice were acclimated to the testing room for at least 30 minutes.
The assay was carried out using four EzRod test chambers kept in a laminar hood for testing. For the accelerating rotarod paradigm, mice were given 10 trials with the maximum duration of 3 minute and a 30-second intertrial interral (ITI). Each mouse was placed on the EZRod machines and the latency to fall was recorded for all trials. If the mouse fell or 3 minutes elapsed, the mouse was left in the bottom of the EzRod test chamber for 30 seconds before starting the next trial.
The latency to fall was compared between the two groups by analysis of variance (ANOVA) with repeated measures.

male Swiss Webster mice = test: Spontaneous locomotor activity dose response study (NIDA MDD protocol); format: in vivo, mouse; conditions: 3, 10, 30 or 100 mg/kg IP, FIGS. 4 and 5
Protocol: A dose response study was conducted of locomotor depression induced by the compound of Example 3, according to NIDA's Medication Development Division (MDD) locomoter activity studies standard protocol. The study was conducted using 40 Digiscan locomotor activity testing chambers (40.5×40.5×30.5 cm) housed in sets of two, within sound attenuating chambers. A panel of infrared beams (16 beams) and corresponding photodetectors were located in the horizontal direction along the sides of each activity chamber. A 7.5 W incandescent light above each chamber provided dim illumination. Fans provided an 80 dB ambient noise level within the chamber. Separate groups of 8 non-habituated male Swiss Webster mice (Hsd:ND4, aged 2-3 months) were injected via the intraperitoneal (IP) route with either vehicle (2% methyl cellulose) or the compound of Example 3, above, (3, 10, 30 or 100 mg/kg) twenty minutes prior to locomotor activity testing. Just piro to placement in the apparatus, all mice received a saline injection IP. In all studies, horizontal activity (interruption of photocell beams) was measured for 1 hour within 10 minute periods. Testing was conducted with one mouse per activity chamber.
The same protocol was followed in a study of locomotor depression induced by the compound of Example 6. […]

male mice [3] = test: Novel environment-induced feeding suppression (NEIFS); format: in vivo, mouse; conditions: 10 and 90 mg/kg, FIG. 10
Protocol: Novel environment-induced feeding suppression (NEIFS) testing was also performed. Individually housed male mice aged 8-12 weeks are used for this testing. Mice were maintained no a reverse L:D/12 p.m.:12 a.m. cycle in a barrier facility with food and water available ad libitum. Testing occurred towards the end of the light cycle between 6-12 a.m. The mice were acclimated to the testing room for at least 30 minutes.
Days 1, 2, 3 and 5 (Home cage): A Petri dish containing crushed Graham crackers was placed in the farthest corner from each mouse in its own home cage. The time to approach (defined as nose of the mouse directed at or within 1 cm of the dish) and consume (eat, not pick up) the crackers was recorded immediately following the placement of the dish into home cage.
Day 4 (Novel environment): The procedure followed was the same as described for home cage; however, on day 4 the mouse was placed in a new cage with bedding (novel environment) for the duration of the experiment. The mice were subsequently returned to their respective home cages for day 5 testing. The remaining crackers and Petri dish were disposed of at the end of the experiment for each mouse.

## Cc1ccc(C[n+]2[cH-]/c(=N\C(=O)Nc3ccccc3)on2)cc1 [Example 3, N-phenylcarbamoyl-3-(p-methyl-benzyl)-sydnonimine]
[1]; 10 mg/kg (IP)
  Brain Drug Concentration: 0.00 ng/mL
[1]; 10 mg/kg (IV)
  Brain Drug Concentration: 95.10 ng/mL
  concentration at 5 min: 2310 ng/mL
  concentration at 15 min: 1720 ng/mL
  concentration at 30 min: 1140 ng/mL
  concentration at 60 min: 464 ng/mL
  concentration at 120 min: 78.7 ng/mL
  concentration at 240 min: 178 ng/mL
  concentration at 480 min: 49 ng/mL
[1]; 10 mg/kg (PO)
  Brain Drug Concentration: 107.55 ng/mL
  concentration at 5 min: 418 ng/mL
  concentration at 15 min: 298 ng/mL
  concentration at 30 min: 150 ng/mL
  concentration at 60 min: 158 ng/mL
  concentration at 120 min: 165 ng/mL
  concentration at 240 min: 97.5 ng/mL
  concentration at 480 min: 163 ng/mL
[1]; 30 mg/kg (PO)
  Brain Drug Concentration: 123.97 ng/mL
  concentration at 5 min: 869 ng/mL
  concentration at 15 min: 845 ng/mL
  concentration at 30 min: 627 ng/mL
  concentration at 60 min: 218 ng/mL
  concentration at 120 min: 203 ng/mL
  concentration at 240 min: 183 ng/mL
  concentration at 480 min: 168 ng/mL
[1]; intraperitoneal, 10 mg/kg (IP)
  concentration at 5 min: 1460 ng/mL
  concentration at 15 min: 374 ng/mL
  concentration at 30 min: 242 ng/mL
  concentration at 60 min: 190 ng/mL
  concentration at 120 min: 70.2 ng/mL
  concentration at 240 min: 143 ng/mL
  concentration at 480 min: 123 ng/mL
[1]; administered orally or via intravenous administration
  Brain penetration: reaches the brain
mice
  Behavioral effects in Irwin Behavioral Battery (spontaneous activity, grip strength, limb tone): induced significant behavioral effects
Male mice [2]
  Rotarod performance: did not affect rotarod performance
Male Swiss Webster mice
  Effect on spontaneous locomotor activity: dose dependent suppression of spontaneous locomotor activity
Male mice [3]
  Anxiolytic effect in novel environment induced feeding suppression: induced measurable anxiolytic effects
